One data set concerns P. aeruginosa. Conditions: cited from earlier work.
For data set [1] the following is noted: parent drug; cited from earlier work.
The nature of data set [2]: Lung pharmacokinetic profiling in guinea pigs after intratracheal instillation. The data set is classed as in vivo, guinea pigs (Cavia porcellus). Conditions: male, guinea pig, 1.6 mg.

Bounds are passed on as bounds.

`C[C@@H](O)[C@H]1C(=O)N2C(C(=O)O)=C(S[C@@H]3CN[C@H](C(=O)N(C)C)C3)[C@H](C)[C@H]12` [meropenem]: the MIC90 in the data set on P. aeruginosa is on record as 8,000 ng/mL. Moreover, the “solubility (S) in water” value in data set [1] was above 50 mg/mL. In data set [2] (inhaled or intranasal), this compound showed a Cmax above 70000 ng/mL. In data set [2] (other: intratracheal), this compound registered a concentration at 3 h below 1000 ng/mL, a concentration at 9 h of 12 ng/mL and a concentration at 12 h of 10 ng/mL.

As usually defined, the Cmax is the peak of the concentration-time curve.

These data come from PMC4744570 (Pharmaceutical research, 2015).
